“Also recorded” adds a separate entry of the source.
Key:
Merino sheep skin = assay: Pour-on carrier/vehicle sheep skin irritation studies (histological scoring); assay type: in vivo; conditions: for Mean skin irritation scores: 1 mL applied to skin of recently shorn Merino sheep, histological score 0-15 (0 no change, 15 very severe damage; normal 2-4, >4 abnormal, >7 very abnormal); for skin irritancy / histological dermatitis (in words): applied to skin of recently shorn Merino sheep, histology
Method: Studies were conducted to investigate and characterise the changes occurring in Merino sheep skin following the application of a range of candidate pour-on formulation components in order to discern safe carriers. Chemicals, emollients, wool grease derivatives and a wide range of formulations were applied (in 1 mL volumes) to each of 18 sites on the back and flanks of 15 recently shorn Merino sheep.
In the first study, skin samples were collected at necropsy 3½weeks after application. In subsequent studies, skin samples were collected 2 weeks after application. Standard haematoxylin and eosin stained sections were prepared from each piece of treated skin. A histological scoring system was devised to allow comparison of treatments. Each skin was assessed for the degree of hyperkeratosis, acanthosis and inflammatory cell infiltrate of the superficial dermis and given a rating score from 0–15. A score of 0=no change through to a score of 15 for very severe damage. Normal skin scored 2–4, >4 was abnormal and >7 was very abnormal. Treatments yielding a score ? 4.5 were considered safe. […]

[1] = tested on: Bovicola ovis (Hartley, Claremont, susceptible and slightly resistant strains); assay: Example 6: zeta-cypermethrin in a variety of carriers, lice control on sheep; assay type: in vivo; conditions: for lice control, susceptible strain (in words): sheep infested with SP-susceptible strain
Method: These studies were devised to determine the efficacy of zeta-cypermethrin (at 2 mg/kg of body weight) in several nonaqueous formulations, and a commercial formulation of deltamethrin, on sheep infested with a severely synthetic pyrethroid (SP) resistant (Hartley) strain and a moderately SP resistant (Claremont) strain of Bovicola ovis. Some additional studies were undertaken with susceptible and slightly resistant lice to determine whether zeta-cypermethrin was able to kill lice under optimum conditions.

[2] = tested on: Bovicola ovis (highly synthetic pyrethroid (SP) resistant, Hartley strain of lice); assay: Example 2: wool grease formulations and IPM with zeta-cypermethrin and spinosad, lice control on sheep; assay type: in vivo; conditions: for efficacy at eight weeks: 2 mL/10 kg
Text: The purposes of this study were to evaluate wool grease as a formulation to deliver spinosad, to determine the dose required to kill 100% of lice in sheep and to evaluate the suitability of the formulation to deliver zeta-cypermethrin, compared with an isopropyl myristate (IPM) formulation.
Sheep were heavily infested with the highly synthetic pyrethroid (SP) resistant, Hartley strain of lice. Sheep were shorn, lice counted and sheep allocated to ten groups of six sheep, each divided into three groups of two per treatment. All sheep were treated at the rate of 2 mL of test formulation/10 kg of body weight. Treatments were, respectively: wool grease only; 2 mg/kg deltamethrin and 4 mg/kg alphacypermethrin in commercial formulations; spinosad in wool grease at 0.08 mg/kg, 0.4 mg/kg, 2 mg/kg and 10 mg/kg; zeta-cypermethrin in wool grease at 0.66 mg/kg and 2 mg/kg; and spinosad in IPM at 0.4 mg/kg. Lice numbers were counted weekly for eight weeks.

[3] = Example 12: physical characteristics and freezing points of solvents and solvent combinations; assay type: physicochemical; conditions: vehicle alone
Method: The physical characteristics of various individual solvents and solvent combinations were determined.

[4] = Example 5: diffusion of 14C-zeta-cypermethrin on sheep skin in a variety of carriers; assay type: in vivo; conditions: 1 mL/5 kg on backline of sheep; for spread of zeta-cypermethrin from the backline (in words): carrier with 10 mg/mL 14C-spiked zeta-cypermethrin, wool at 2, 7.5, 15 cm meridians up to day 14
Method: This study compared the amount and rate of diffusion of ^14C-labelled zeta-cypermethrin from the dorsal midline of sheep, when applied in wool grease, in an aqueous formulation and in a range of test carriers.
Each formulation was applied to the backline of three sheep at 1 mL/5 kg body weight. Wool was collected from three 12×12-mm squares chosen at random, along meridian lines drawn 2, 7.5 and 15 cm down the side of each sheep from the backline. The wool samples were collected at 1, 2, 4, 8, 11 and 14 days after treatment, and each day's samples were pooled. The clipped areas were also swabbed. At day 14 after treatment, the wool at the site of application was collected and back and perirenal fat samples were collected. The quantity of zeta-cypermethrin in each sample was measured by liquid scintillation counting.

Bovicola ovis [5] = assay: Example 4: therapeutic efficacy and dose titration of spinosad pour-on, sheep housed outdoors; assay type: in vivo; conditions: 1 mL/5 kg
Method: This study was carried out to select the dose of spinosad required to eradicate sheep body lice when applied as a pour-on in OP/IPM/OSU (70:15:15) containing 5% oleic acid, and to compare the efficacy of spinosad at 0.4 mg/kg in a suspension concentrate (SC) formulation applied as a pour-on with that of the pour-on organic solvent formulation. The spinosad formulations were applied at 1 mL/5 kg and at 0, 0.2, 0.4, 0.8, 1.6 and 3.2 mg/kg to 6 groups of 6 recently shorn sheep that were housed outdoors for 6 weeks.

Bovicola ovis [6] = assay: Example 3: spinosad in a variety of carriers as pour-on, lice control on sheep housed indoors; assay type: in vivo; conditions: carrier containing spinosad, 0.4 mg/kg, 1 mL/5 kg
Method: The aim of this study was to select the most efficacious of a range of eight formulations that were selected on the basis of safety, physical properties, efficacy, cost and theories of dermal insecticide spread.
Each formulation was prepared to provide spinosad at a dose of 0.4 mg/kg and applied at a rate of 1 mL/5 kg of body weight.

[7] = 2 mg/kg (deltamethrin in commercial formulation; zeta-cypermethrin in wool grease)

CCCCOCCOCCO [DB, diethylene glycol n-butyl ether]
Mean skin irritation scores (Merino sheep skin): 7 | skin irritancy / histological dermatitis (in words) (Merino sheep skin): highly irritant

propylene glycol dicaprylate dicaprate
skin irritancy / histological dermatitis (in words) (Merino sheep skin): highly irritant

CC1(C)C(C=C(Cl)Cl)C1C(=O)OC(C#N)c1cccc(Oc2ccccc2)c1 (centres unmarked) [zeta-cypermethrin]
lice control, lice with high and moderate resistance to SPs (in words) ([1]; 2 mg/kg zeta-cypermethrin in nonaqueous formulations, commercial deltamethrin, Hartley and Claremont strains): did not give adequate control | lice control, susceptible strain (in words) ([1]; zeta-cypermethrin 2 mg/kg pour-on): did control | lice control, susceptible strain (in words) ([1]; zeta-cypermethrin 2 mg/kg pour-on, listed as Zeta-cypermethrin): eradicated lice | lice control, mildly resistant strain (in words) ([1]; zeta-cypermethrin 2 mg/kg pour-on, sheep infested with mildly resistant strain): excellent control | efficacy at eight weeks ([2]; 0.66 mg/kg (zeta-cypermethrin in wool grease)): 0% | efficacy at eight weeks [2, 7]: 43% | lice control compared with the other treatments (in words) ([2]; weekly counts for eight weeks): no significant differences in efficacy at eight weeks; also recorded: better lice control than the commercial pour-ons for the first 5 weeks

COC(C)COC(C)CO (centres unmarked) [DPM, dipropylene glycol methyl ether]
Mean skin irritation scores (Merino sheep skin): 4 | skin irritancy / histological dermatitis (in words) (Merino sheep skin): mild to moderate dermatitis

CCCCCCCCCCCCCCCC(=O)OCCCCCCCC [OP, octyl palmitate]
Mean skin irritation scores (Merino sheep skin): 3.3 | skin irritancy / histological dermatitis (in words) (Merino sheep skin): non-irritant | Physical Properties (in words) [3]: spreads, lubricant

CCCCCCCC/C=C\CCCCCCCC(=O)OC [methyl oleate]
skin irritancy / histological dermatitis (in words) (Merino sheep skin): highly irritant

CC1(C)C(C=C(Cl)Cl)C1C(=O)OC(C#N)c1cccc(Oc2ccccc2)c1 (centres unmarked) [alphacypermethrin]
efficacy at eight weeks ([2]; 4 mg/kg (alphacypermethrin in commercial formulation)): 9%

CCCCCCCCCCCCCCCCCC(=O)OCCCCCCCC [OS, octyl stearate]
spread of zeta-cypermethrin from the backline (in words) [4]: modest spread; also recorded: better spread | Physical Properties (in words) [3]: spreads, lubricant

spinosad
Efficacy (%) at Day 41 (Bovicola ovis [5]; spinosad 0.2 mg/kg in OP/IPM/OSU (70:15:15) with 5% oleic acid): 37% | Efficacy (%) at Day 41 (Bovicola ovis [5]; spinosad 0.4 mg/kg in OP/IPM/OSU (70:15:15) with 5% oleic acid): 46% | Efficacy (%) at Day 41 (Bovicola ovis [5]; spinosad 0.8 mg/kg in OP/IPM/OSU (70:15:15) with 5% oleic acid): 78% | Efficacy (%) at Day 41 (Bovicola ovis [5]; spinosad 1.6 mg/kg in OP/IPM/OSU (70:15:15) with 5% oleic acid): 37% | Efficacy (%) at Day 41 (Bovicola ovis [5]; spinosad 3.2 mg/kg in OP/IPM/OSU (70:15:15) with 5% oleic acid): 93%

CCCCCCCCCCCCCC(=O)OC(C)C [IPM, isopropyl myristate]
Mean skin irritation scores (Merino sheep skin): 8 | skin irritancy / histological dermatitis (in words) (Merino sheep skin): severe dermatitis | spread of zeta-cypermethrin from the backline (in words) [4]: greatest spread; also recorded: best spread | skin reaction at the site of application ([4]; carrier with 10 mg/mL zeta-cypermethrin): severe scabbing/crusting of the skin | freezing point [3]: −2 to −6 °C | efficacy by the end of the study (Bovicola ovis [6]): about 90%

CC1(C)[C@H](C(=O)O[C@H](C#N)c2cccc(Oc3ccccc3)c2)[C@@H]1C=C(Br)Br [deltamethrin]
efficacy at eight weeks [2, 7]: 8%

CC(=O)CC(C)(C)O [Diacetone alcohol]
Mean skin irritation scores (Merino sheep skin): 2 | skin irritancy / histological dermatitis (in words) (Merino sheep skin): non-irritant

isocetyl stearate [ICS]
skin irritancy / histological dermatitis (in words) (Merino sheep skin): mild to moderate dermatitis

CCCCCCCCCCC(CO)CCCCCCCC (centres unmarked) [2-octyl-dodecanol]
skin irritancy / histological dermatitis (in words) (Merino sheep skin): highly irritant
